# How the values were obtained:
# [1] = tested on: Pyricularia oryzae; assay: Antifungal activity against Magnaporthe oryzae assessed as diameter of mycelial colony after 3 to 4 days by agar dilution method; format: functional, organism-based
# [2] = tested on: Bipolaris oryzae; assay: Antifungal activity against Bipolaris oryzae assessed as diameter of mycelial colony after 3 to 4 days by agar dilution method; format: functional, organism-based
# [3] = tested on: Fusarium fujikuroi; assay: Antifungal activity against benzimidazole-sensitive Fusarium fujikuroi assessed as diameter of mycelial colony after 3 to 4 days by agar dilution method; format: functional, organism-based
# [4] = tested on: Fusarium fujikuroi; assay: Inhibition of ergosterol biosynthesis in benzimidazole-sensitive Fusarium fujikuroi assessed as incorporation of [2-14C] acetate into total lipids at 7.35 ppm by autoradiography; format: functional
# [5] = tested on: Fusarium fujikuroi; assay: Inhibition of ergosterol biosynthesis in benzimidazole-sensitive Fusarium fujikuroi assessed as incorporation of [2-14C] acetate into lipid fraction at 7.35 ppm by autoradiography; format: functional
# [6] = tested on: Fusarium fujikuroi; assay: Inhibition of ergosterol biosynthesis in benzimidazole-sensitive Fusarium fujikuroi assessed as incorporation of [2-14C] acetate into ergosterol at 7.35 ppm by autoradiography; format: functional
# [7] = tested on: Fusarium fujikuroi; assay: Inhibition of ergosterol biosynthesis in benzimidazole-sensitive Fusarium fujikuroi assessed as incorporation of [2-14C] acetate into 24-methylenedihydrolanosterol at 7.35 ppm by autoradiography; format: functional
# [8] = tested on: Fusarium fujikuroi; assay: Inhibition of ergosterol biosynthesis in benzimidazole-sensitive Fusarium fujikuroi assessed as incorporation of [2-14C] acetate into total lipids at 0.24 ppm by autoradiography; format: functional
# [9] = tested on: Fusarium fujikuroi; assay: Inhibition of ergosterol biosynthesis in benzimidazole-sensitive Fusarium fujikuroi assessed as incorporation of [2-14C] acetate into lipid fraction at 0.24 ppm by autoradiography; format: functional
# [10] = tested on: Fusarium fujikuroi; assay: Inhibition of ergosterol biosynthesis in benzimidazole-sensitive Fusarium fujikuroi assessed as incorporation of [2-14C] acetate into ergosterol at 0.24 ppm by autoradiography; format: functional
# [11] = tested on: Fusarium fujikuroi; assay: Inhibition of ergosterol biosynthesis in benzimidazole-sensitive Fusarium fujikuroi assessed as incorporation of [2-14C] acetate into 24-methylenedihydrolanosterol at 0.24 ppm by autoradiography; format: functional
Compound,EC50 [1],EC50 [2],EC50 [3],inhibition at 7.35 ppm [4],inhibition at 7.35 ppm [5],inhibition at 7.35 ppm [6],inhibition at 7.35 ppm [7],inhibition at 0.24 ppm [8],inhibition at 0.24 ppm [9],inhibition at 0.24 ppm [10],inhibition at 0.24 ppm [11]
C=CCCCOC(=O)C(CC)N(Cc1ccco1)C(=O)n1ccnc1 (racemic) [Pefurazoate],0.89 ppm,0.84 ppm,0.49 ppm,–,–,–,–,–,–,–,–
C=CCCCOC(=O)[C@@H](CC)N(Cc1ccco1)C(=O)n1ccnc1 [(R)-(+)-pefurazoate],3.21 ppm,3.89 ppm,7.35 ppm,1.6%,84.5%,1.3%,14.2%,–,–,–,–
C=CCCCOC(=O)[C@H](CC)N(Cc1ccco1)C(=O)n1ccnc1 [(S)-(-)-pefurazoate],0.61 ppm,0.41 ppm,0.24 ppm,–,–,–,–,1.3%,84.8%,1.3%,13.9%

# From ChEMBL document CHEMBL3046945, “Enantioselective Antifungal Activity of Pefurazoate against Pathogens of Rice Seed Diseases” (J Pestic Sci, 2001)
